Test results as given in PubChem BioAssay AID1963964 (Molecular Pharmacology Branch, DTP, NCI, 2024).

Test system: 997726-040-R-J2-PDC tumor spheroids, viability
Assay: Anticancer human tumor 997726-040-R-J2-PDC patient-derived squamous cell lung carcinoma cell line growth inhibition [PI3K]
Conditions: spheroids with HUVEC and MSC; for viability, T/C: stronger effect = lower value
Source text: Combinatorial screen of targeted agents with the PI3K inhibitors inavolisib, alpelisib, duvelisib, and copanlisib in multi-cell type tumor spheroids
A high-throughput screen of multi-cell type tumor spheroids was designed to identify active combinations of targeted small molecules and PI3K pathway inhibitors. Complex spheroids include a stromal component modeled by human endothelial cells (HUVEC) and fibroblasts modeled by human mesenchymal stem cells (MSCs). The concentration ranges selected for each drug and investigational agent were based upon clinically achievable concentrations if the clinical Cmax of the agent was known.
Compounds. The drugs and investigational agents: inavolisib (NSC800729), alpelisib (NSC765974), duvelisib (NSC772469), copanlisib (NSC816437), ipatasertib (NSC767898), afuresertib (NSC778305), talazoparib (NSC767125), sapanisertib (NSC764658), selumetinib (NSC741078), tovorafenib (DAY101, NSC766906), vemurafenib (NSC761431), ravoxertinib (NSC781343), sotorasib (NSC818433), MRTX1133 (NSC 836407), abemaciclib (NSC 768073), palbociclib (NSC758247), venetoclax (NSC 766270), SY5609 (NSC837396), enzalutamide (NSC755605), and darolutamide (NSC825331), were obtained from the National Cancer Institute (NCI) Developmental Therapeutics Program Chemical Repository. The FDA-approved anticancer drug set is available from the NCI Developmental Therapeutics Program. […] The stock solutions were prepared in dimethyl sulfoxide (DMSO, Sigma-Aldrich, St. Louis, MO, cat. D2650) at 800-fold the tested concentration and stored at -70 degrees C prior to their use. All drugs and investigational agents were tested over a range starting from a high concentration at or near the clinical Cmax and decreasing in half-log increments. If the clinical Cmax for an agent had not been determined, the highest concentration tested was 10 microM.
Cell Culture. All cells were maintained in an incubator at 37 degrees C and 5% CO2 with 95% humidity. The PDC lines were cultured according to standard operating procedures established by the NCI PDMR (https://pdmr.cancer.gov/sops/default.htm). All PDCs were thawed and cultured in Matrigel-coated flasks prepared with a working solution of 1X Ham's F-12 nutrient mix, without supplementation (Invitrogen, Waltham, MA, cat. 11765054), 100 U/mL penicillin-streptomycin (Invitrogen, cat. 15140122), and 2.5% Matrigel (Corning Inc., Corning, NY, cat. 354248) for the first three passages. The 354836-022-R-J1-PDC, 475296-252-R-J1-PDC, and 997726-040-R-J2-PDC lines were cultured in 6A media, which includes advanced DMEM/F-12 (Thermo Fisher Scientific, cat. 12634028), 10 mM HEPES (Thermo Fisher Scientific, cat. 15630080), 1X GlutaMAX supplement (Thermo Fisher Scientific, cat. 35050061), 0.1 mg/mL primocin (InvivoGen, San Diego, CA, cat. ant-pm-2), 10% defined fetal bovine serum, heat inactivated (HyClone Laboratories Inc., Logan, UT, cat. SH30070.03HI), 50% L-WRN conditioned media (ATCC, cat. CRL-3276), 1.25 mM N-Acetyl-L-cysteine (Sigma-Aldrich, cat. A9165), 10 mM nicotinamide (Sigma-Aldrich, cat. N0636), 1X B-27 supplement (Thermo Fisher Scientific, cat. 17504044), 1X N-2 supplement (Thermo Fisher Scientific, cat. 17502048), and 10 microM Y-27632 dihydrochloride (Tocris Bioscience, Bristol, United Kingdom, cat. 1254). The 624824-186-R-J2-PDC line was cultured in 6C/Colon 1B media, which includes all 6A media components plus 50 ng/mL human EGF recombinant protein (Thermo Fisher Scientific, cat. PHG0311). […]
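Also: spheroids exposed to compounds for seven days before readout.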

Work on `Cn1cnc2c(F)c(Nc3ccc(Br)cc3Cl)c(C(=O)NOCCO)cc21` + Cc1nc(NC(=O)N2CCCC2C(N)=O)sc1-c1ccnc(C(C)(C)C(F)(F)F)c1 yielded an IC50 (curve of first compound, second compound 0.0316 µM) of 129 nM, an IC50 (curve of first compound, second compound 0.1 µM) of 66.2 nM and an IC50 (curve of first compound, second compound 0.316 µM) of less than 9.49 nM. It also gave an IC50 (curve of first compound, second compound 1 µM) of less than 9.49 nM, an IC50 (curve of first compound, second compound 3.16 µM) of less than 9.49 nM and an IC50 (curve of first compound, second compound 10 µM) of less than 9.49 nM. For the same compound, the viability, T/C (second compound 0.0316 µM, first compound 0.00949 µM) was 74.8%, the viability, T/C (second compound 0.0316 µM, first compound 0.03 µM) was 58.5% and the viability, T/C (second compound 0.0316 µM, first compound 0.0949 µM) was 53.5%. It also gave a viability, T/C (second compound 0.0316 µM, first compound 0.3 µM) of 41.7%, a viability, T/C (second compound 0.0316 µM, first compound 0.949 µM) of 45.9% and a viability, T/C (second compound 0.0316 µM, first compound 3 µM) of 34.1%. For the same compound, the viability, T/C (second compound 0.1 µM, first compound 0.00949 µM) was 67.6%, the viability, T/C (second compound 0.1 µM, first compound 0.03 µM) was 56.1% and the viability, T/C (second compound 0.1 µM, first compound 0.0949 µM) was 44.9%. For the same compound, the viability, T/C (second compound 0.1 µM, first compound 0.3 µM) was 40.5%, the viability, T/C (second compound 0.1 µM, first compound 0.949 µM) was 38.7% and the viability, T/C (second compound 0.1 µM, first compound 3 µM) was 28.5%. For the same compound, the viability, T/C (second compound 0.316 µM, first compound 0.00949 µM) was 51.1%, the viability, T/C (second compound 0.316 µM, first compound 0.03 µM) was 40.6% and the viability, T/C (second compound 0.316 µM, first compound 0.0949 µM) was 35.7%. The viability, T/C (second compound 0.316 µM, first compound 0.3 µM) was 34.3%, the viability, T/C (second compound 0.316 µM, first compound 0.949 µM) was 28.4% and the viability, T/C (second compound 0.316 µM, first compound 3 µM) was 22.2%. It also gave a viability, T/C (second compound 1 µM, first compound 0.00949 µM) of 36.7%, a viability, T/C (second compound 1 µM, first compound 0.03 µM) of 32.6% and a viability, T/C (second compound 1 µM, first compound 0.0949 µM) of 29.4%. The viability, T/C (second compound 1 µM, first compound 0.3 µM) was 25.3%, the viability, T/C (second compound 1 µM, first compound 0.949 µM) was 22.7% and the viability, T/C (second compound 1 µM, first compound 3 µM) was 21.2%. The viability, T/C (second compound 3.16 µM, first compound 0.00949 µM) was 24.8%, the viability, T/C (second compound 3.16 µM, first compound 0.03 µM) was 21.2% and the viability, T/C (second compound 3.16 µM, first compound 0.0949 µM) was 22.2%. It also gave a viability, T/C (second compound 3.16 µM, first compound 0.3 µM) of 20.9%, a viability, T/C (second compound 3.16 µM, first compound 0.949 µM) of 20.7% and a viability, T/C (second compound 3.16 µM, first compound 3 µM) of 14.3%. It also gave a viability, T/C (second compound 10 µM, first compound 0.00949 µM) of 17.8%, a viability, T/C (second compound 10 µM, first compound 0.03 µM) of 17.2% and a viability, T/C (second compound 10 µM, first compound 0.0949 µM) of 15.5%. It also gave a viability, T/C (second compound 10 µM, first compound 0.3 µM) of 15.3%, a viability, T/C (second compound 10 µM, first compound 0.949 µM) of 12.2% and a viability, T/C (second compound 10 µM, first compound 3 µM) of 7.26%.

`C#Cc1c(F)ccc2cc(O)cc(-c3ncc4c(N5CC6CCC(C5)N6)nc(OCC56CCCN5CC(F)C6)nc4c3F)c12` (centres undefined) was tested, and the viability, T/C (compound 0.0316 µM) was 105% [middle of 4 runs], the viability, T/C (compound 0.1 µM) was 96% [middle of 4 runs] and the viability, T/C (compound 0.316 µM) was 96.5% [middle of 4 runs]. The viability, T/C (compound 1 µM) was 96.6% [middle of 4 runs], the viability, T/C (compound 3.16 µM) was 92.6% [middle of 4 runs] and the viability, T/C (compound 10 µM) was 77.5% [middle of 4 runs]. It also gave an IC50 (curve of compound) greater than 10000 nM.
